One experiment concerns C6. In words: Antitumor activity against rat C6 cells transplanted to rat assessed as reduction in tumor growth at 8 mg/kg, intra-tumor treated after 1 week of tumor injection measured up to 15 days relative to untreated control. Type of experiment: functional, organism-based. Further details: dose 8 mg/kg.
A short description of experiment [1]: Antiproliferative activity against human […] cells assessed as inhibitory activity measured after 36 hrs by [3H]thymidine incorporation assay. In kind it is functional. The following applies: read-out: ID50 (the source's name). Background: Dividing cells build labelled thymidine or BrdU into new DNA.
The nature of experiment [2]: Antiproliferative activity against human […] cells assessed as Solute carrier family 4, anion exchanger, member 2 (erythrocyte membrane protein band 3-like 1) gene repression at IC50 concentration after 24 hrs by microarray analysis relative to control. In kind it is functional.
A short description of experiment [3]: Antiproliferative activity against human […] cells assessed as Rho GDP dissociation inhibitor (GDI) alpha gene repression at IC50 concentration after 24 hrs by microarray analysis relative to control. Type of experiment: functional.
A short description of experiment [4]: Antiproliferative activity against human […] cells assessed as Tumor protein p53 gene repression at IC50 concentration after 24 hrs by microarray analysis relative to control. Type of experiment: functional.
A short description of experiment [5]: Antiproliferative activity against human […] cells assessed as Human epsilon 14-3-3 protein gene repression at IC50 concentration after 24 hrs by microarray analysis relative to control. Type of experiment: functional.
The nature of experiment [6]: Antiproliferative activity against human […] cells assessed as Human Bcl-x beta gene repression at IC50 concentration after 24 hrs by microarray analysis relative to control. Type of experiment: functional.

Calls of active or inactive are those of the source. The calls are words filed in the database; no cut-off is given here.

For `CCCCCCCCCCCCCCCCO[C@H]1O[C@H](CO)[C@@H](O)[C@H](O)[C@H]1NC(C)=O`, the result with C6 was inactive. Further, in experiment [1], the IC50 was determined as 13 µM.
Turning to `CCCCCCCCO[C@H]1O[C@H](COCC(CO)(CO)CO)[C@@H](O)[C@H](O)[C@H]1NC(C)=O`, the “fold change (FC)” value is on record as 0.7 in experiment [2]; 0.3 in experiment [3]; 0.5 in experiment [4]; 0.5 in experiment [5]; 0.3 in experiment [6]. Besides, the IC50 in experiment [1] is 180 µM.
For the molecule `CCCCCCCCCCCCCCCCO[C@H]1O[C@H](COCC(O)CO)[C@@H](O)[C@H](O)[C@H]1NC(=O)CCCC` (some centres not stated), the result with C6 was inactive. In addition, the IC50 in experiment [1] came to 4.6 µM.
For `CCCCCCCCCCCCCCCCO[C@H]1O[C@H](COCC(CO)(CO)COS(=O)(=O)O)[C@@H](O)[C@H](O)[C@H]1NC(=O)CCCC` the same measures were “Active” and 3.2 µM.

Source of the values: ChEMBL document CHEMBL2331180, “Synthetic glycolipids for glioma growth inhibition developed from neurostatin and NF115 compound” (2013).
